Measured values taken from paper PMC10539800, “Small-molecule inhibitors of the PDZ domain of Dishevelled proteins interrupt Wnt signalling” (Magnetic resonance, 2021).

Key:
Dvl-1 PDZ [1] = target: T1, Dvl-1 PDZ (Homo sapiens, UniProt O14640, C338S/V250I); test: Binding constant by NMR titration; set-up: made in house; host or cells: E. coli BL21 (DE3); settings: mean ± SD of at least six residues, read-out: K D Dvl-1 PDZ
T1 sequence (O14640 245-338 V250I/C338S): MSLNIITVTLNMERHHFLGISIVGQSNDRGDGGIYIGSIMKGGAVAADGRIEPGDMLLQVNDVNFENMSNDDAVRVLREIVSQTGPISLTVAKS
Experimental: Chemical shift perturbations were obtained by comparing the ^1H-^15N backbone resonances of protein alone to those of protein–ligand complex. […] 1 Δδ=[ΔδH]^2+[ΔδN5]^2/2 Here ΔδN and ΔδH are the amide nitrogen and amide proton chemical shift differences between the free and the bound states of the protein. In order to estimate binding constants, titration experiments monitored by NMR were done. A series of ^1H-^15N HSQC were recorded as a function of ligand concentration. Residues showing a continuous chemical shift change and for which the intensity remained strong were classified as being in fast exchange. […] [LT] is the total concentration of the compound, and [PT] is the total concentration of the protein. K D is the equilibrium dissociation constant. The K D values are reported as means ± standard deviations of at least six residues influenced upon binding of the ligand.

Dvl-3 PDZ [2] = target: T2, Dvl-3 PDZ (Homo sapiens, UniProt Q92997); test: NMR 1H-15N HSQC chemical shift perturbation; assay type: binding; settings: Dvl-3 PDZ; average of the three strongest shifting cross peaks
T2 construct: spectra of Dvl-3 PDZ in the absence and presence of the compound; His-tag (cleaved yes); made in house
T2 sequence (Q92997 243-336): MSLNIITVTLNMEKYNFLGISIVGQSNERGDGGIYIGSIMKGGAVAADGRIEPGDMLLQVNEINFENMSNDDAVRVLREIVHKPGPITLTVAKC
Experimental: The results of virtual screening were checked experimentally by comparing 2D ^1H-^15N HSQC (heteronuclear single quantum correlation) spectra of Dvl-3 PDZ in the absence and presence of the compound to elucidate ligand-induced changes of chemical shifts. Chemical shift perturbation differences ( Δ CSP, representing the average of the three strongest shifting cross peaks according to Eq. 1) were evaluated in cases where the residues responding strongest are inside the area defined by Fig. 1a. […] In most cases, the signals of residues S263, V287, and R320 (Fig. 1a) within the conserved binding site were most strongly perturbed (Fig. S2). With the Δ CSP of 0.12 ppm, the isoleucine-derived compound 1 ((2,3-dihydrobenzo[b][1,4]dioxin-6-yl)sulfonyl)-L-isoleucine containing a sulfonamide moiety was detected initially as one of the best “hits” according to chemical shift changes. The sulfonamide is a well-known moiety in drug discovery (Mathvink et al., 1999; Wu et al., 1999; Sleight et al., 1998; O'Brien et al., 2000; Tellew et al., 2003).
Two-dimensional ^1H-^15N HSQC spectra were used to screen a library of 212 compounds designed by the company Enamine for PDZ domains. 50 µM of ^15N -labelled protein samples was prepared in a 20 mM sodium phosphate buffer, containing 50 mM sodium chloride, 0.02 % ( w/v ) NaN3 , at pH 7.4. Stock solutions of small molecules were prepared in DMSO-d6 at a concentration of 160 mM. A ^1H-^15N HSQC spectrum of Dvl PDZ was acquired at 300 K with 5 % DMSO-d6 in the absence of ligand as reference spectrum. Mixtures of 16 compounds were added to ^15N -labelled Dvl PDZ at eightfold molar excess each. The final concentration of DMSO-d6 in the protein–ligand solutions was 5 %. Spectra were acquired with eight scans and 256 points in the indirect dimension. […] The active compound was obtained through successive deconvolution. Experiments were recorded on a Bruker DRX600 spectrometer equipped with a triple-resonance cryoprobe. The preparation of samples was done automatically by a Tecan Genesis RSP 150 pipetting robot. Spectra were analysed using the programs TOPSPIN and SPARKY (Goddard and Kneller, 2003).
50 µM of ^15N -labelled protein samples was prepared in a 20 mM sodium phosphate buffer containing 50 mM sodium chloride, 0.02 % ( w/v ) NaN3 , at pH 7.4. Stock solutions of small molecules were prepared in DMSO-d6 at a concentration of 160 mM. A ^1H-^15N HSQC spectrum of Dvl PDZ was acquired at 300 K with 5 % DMSO-d6 in the absence of ligand as reference spectrum. Mixtures of 16 compounds were added to ^15N -labelled Dvl PDZ at eightfold molar excess each. The final concentration of DMSO-d6 in the protein–ligand solutions was 5 %. Spectra were acquired with eight scans and 256 points in the indirect dimension.
The active compound was obtained through successive deconvolution. Experiments were recorded on a Bruker DRX600 spectrometer equipped with a triple-resonance cryoprobe. The preparation of samples was done automatically by a Tecan Genesis RSP 150 pipetting robot. Spectra were analysed using the programs TOPSPIN and SPARKY.

Dvl-3 PDZ [3] = target: T2, Dvl-3 PDZ; test: Binding constant by NMR titration; settings: by NMR; mean ± SD of at least six residues; read-out: K D Dvl-3 PDZ
From the text: (§1) K D is the equilibrium dissociation constant.

Dvl-3 PDZ [4] = test: Binding constant by NMR titration; set-up: species or system human; settings: from NMR K D values
From the text: as §1

Dvl-1 PDZ [5] = target: Dvl-1 PDZ; set-up: method as in Kim et al., 2016; settings: value from literature; ref Kim et al., 2016; read-out: K D Dvl-1 PDZ; cited from earlier work

Row | Kd (Dvl-1 PDZ [1]) | Chemical shift perturbation ΔCSP (Dvl-3 PDZ [2]) | Kd (Dvl-3 PDZ [3]) | discrimination between Dvl-3 PDZ and Dvl-1 PDZ (in words) (Dvl-3 PDZ [4]) | SMILES | Kd (Dvl-1 PDZ [5])
1 | 160 ± 14.6 µM | > 0.2 ppm | 141 ± 14.1 µM | did not distinguish | O=C(O)c1cc(F)ccc1NS(=O)(=O)c1ccc2c(c1)CCCC2 [Compound 5] | 
2 |  |  |  |  | CCOC(=O)c1cc2cc(O)ccc2n1CC(=O)NCCN1CCCCC1 [Ky-02327, ethyl 5-hydroxy-1-(2-oxo-2-((2-(piperidin-1-yl)ethyl)amino)ethyl)-1H-indole-2-carboxylate] | 8.3 ± 0.8 µM
